Experimental data as given in publication PMC12445744, “Molecular docking to homology models of human and Trypanosoma brucei ERK8 that identified ortholog-specific inhibitors” (PLOS Neglected Tropical Diseases, 2025).
Several values for one entry are separate records, joined by “and”; a condition that tells them apart may be missing. Equal entries are not always repeated.

Target: T1, TbERK8 (Trypanosoma brucei brucei, UniProt Q38B88)
T1 sequence (Q38B88 1-442): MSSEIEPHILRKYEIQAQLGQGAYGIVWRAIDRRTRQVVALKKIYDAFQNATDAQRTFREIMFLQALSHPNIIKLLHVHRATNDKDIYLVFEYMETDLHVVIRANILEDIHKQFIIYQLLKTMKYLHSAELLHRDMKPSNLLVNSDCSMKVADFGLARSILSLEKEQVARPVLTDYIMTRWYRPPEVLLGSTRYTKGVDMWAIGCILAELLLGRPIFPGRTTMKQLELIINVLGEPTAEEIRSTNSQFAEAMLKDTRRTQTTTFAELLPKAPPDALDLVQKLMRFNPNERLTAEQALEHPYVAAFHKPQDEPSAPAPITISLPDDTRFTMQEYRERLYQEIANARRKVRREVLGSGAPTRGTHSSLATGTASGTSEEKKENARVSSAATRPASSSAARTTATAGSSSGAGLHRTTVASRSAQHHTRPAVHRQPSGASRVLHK
Assay: Luciferase-based kinase inhibition assay (ATP luminescence), GST-tagged TbERK8 with MBP substrate
Format: biochemical
Parameters: raw luminescence, TbERK8: unit of the concentration uncertain
Details: for raw luminescence, TbERK8: sheet Kinase_glo_080924_IFPS (2), replicate wells, listed as Ida
Method: Escherichia coli strain Rosetta 2 (DE3) (Cat# 71397, MilliporeSigma, Burlington, MA) was transformed with the plasmid pGEX2T expressing the full-length hERK8 coding region or pGSTAg expressing the full-length TbERK8 coding region. One liter of Terrific Broth media containing 100 μg/ml Ampicillin and 30 μg/ml chloramphenicol in 2 L baffled flasks was inoculated with 25 mL from an overnight culture of Rosetta 2 strains harboring either the pGEX2T-hERK8 or pGSTAg-TbERK8 plasmid. Two baffled flasks were inoculated with each overnight strain and incubated and shaken at 175 RPM in a New Brunswick Innova 44R Incubator Shaker (Fischer Scientific, Pittsburgh, PA) at 37 °C until the cultures reached an O.D.600 of 0.94. Once the cultures in the flask reached the target O.D.600, the flasks were cooled to 4 °C in an ice water bath. The cooled cultures were induced by adding isopropyl β-D-1-thiogalactopyranoside (IPTG) to a final concentration of 0.1 mM and shaken at 16 °C for 16 hours at 175 RPM in a New Brunswick Innova 44R Incubator Shaker (Fischer Scientific, Pittsburgh, PA). On the next day, the cultures were pelleted by centrifugation at 9000 xg in a JLA 10.500 rotor (Beckman Coulter; Brea, CA), and the media was decanted. The pellet was flash-frozen in liquid nitrogen and then thawed on ice. The thawed pellet was resuspended in lysis buffer (25 mM Tris, 75 mM NaCl, 0.5% TritonX-100 and 0.5% Nonidet P-40, 1 mM phenylmethanesulfonyl fluoride, 1 mM benzamidine⋅HCl) and lysed using a microfluidizer M-110P from Microfluidics (Westwood, MA). The crude lysates were clarified by centrifugation at 140,000 xg in a 45Ti rotor (Beckman Coulter, Brea, CA) for 30 min at 4°C. The clarified lysate was loaded by gravity to a 3 mL glutathione agarose resin column (Cat# G-250–10, GOLDBIO, St. Louis, MO) formed in a 1.5 × 20 cm glass chromatography column (Cat# 7371522, Bio-Rad, Hercules, CA). The column was washed with 30 mL of PBS (pH 7.4) containing 1 mM DTT. Elution buffer (50 mM Tris buffer pH 8.0 containing 10 mM reduced glutathione and 1 mM DTT was added to the washed column), and 1 mL fractions were collected by gravity and examined by SDS-PAGE stained by Coomassie dye. Peak fractions pooled from the elution were dialyzed (4x 1:500 dilutions) in kinase buffer (30 mM Tris, pH 7.4, 10 mM MgCl2, 1 mM DTT, 5% glycerol).
We performed kinase assays in buffer K (30 mM Tris pH 7.4, 10 mM MgCl2, 1 mM DTT, 5% glycerol, 50 μM ATP, and 0.1 mg/mL BSA) at 30°C for 30 min in 30 μL reactions. GST-tagged HsERK8 and TbERK8 were tested using myelin basic protein (MBP) (Cat# 13–110, Millipore, Darmstadt, Germany) as the substrate at increasing concentrations to determine the optimal activity for the assay. ATP consumption was determined by adding equal volumes of the kinase assay reagent (Promega, Cat# V5601, Madison, WI) following the manufacturer’s protocol. Luminescence was measured using the microplate reader (SpectraMax L, Molecular Devices, Sunnyvale, CA).
These compounds were screened for kinase inhibition utilizing a luciferase-based assay. Briefly, the kinases were tested using MBP as the substrate at a 14-fold molar excess in 384-well flat-bottom white plates (BRANDTECH Scientific, Cat# 781681, Essex, CT). These compounds were tested at concentrations ranging from […] to 150 nM. The kinases plus MBP substrate reactions were incubated with each inhibitor for 30 minutes at 30°C. Equal volumes of kinase assay mix Promega (Cat# V5601, Madison, WI) were added to the kinase/inhibitor reaction after 30 minutes, following the manufacturer’s protocol. ATP luminescence was measured using a microplate reader (SpectraMax L, Molecular Devices, Sunnyvale, CA). IC50 values were calculated from assays done in triplicate by fitting the data using Prism 8.1.1 (GraphPad).

## CC(=O)[C@]1(O)Cc2c(O)c3c(c(O)c2[C@@H](O[C@H]2C[C@H](N)[C@H](O)[C@H](C)O2)C1)C(=O)c1ccccc1C3=O [Idarubicin]
0.00015 (unit uncertain) compound
  raw luminescence, TbERK8: 2715.27 RLU and 2728.74 RLU and 2394.11 RLU
0.00061 (unit uncertain) compound
  raw luminescence, TbERK8: 1071.28 RLU and 918.564 RLU and 956.744 RLU
0.00244 (unit uncertain) compound
  raw luminescence, TbERK8: 1109.46 RLU and 1118.45 RLU and 925.302 RLU
0.00977 (unit uncertain) compound
  raw luminescence, TbERK8: 992.678 RLU and 972.465 RLU and 952.252 RLU
0.03906 (unit uncertain) compound
  raw luminescence, TbERK8: 1019.63 RLU and 976.957 RLU and 1073.53 RLU
0.15625 (unit uncertain) compound
  raw luminescence, TbERK8: 1318.33 RLU and 1147.64 RLU and 1078.02 RLU
0.62500 (unit uncertain) compound
  raw luminescence, TbERK8: 2223.42 RLU and 1980.86 RLU and 1909 RLU
2.50000 (unit uncertain) compound
  raw luminescence, TbERK8: 2212.19 RLU and 2209.94 RLU and 2311.01 RLU
10.00000 (unit uncertain) compound, signal = ATP left
  raw luminescence, TbERK8: 619.862 RLU and 786.057 RLU and 752.369 RLU
Concentrations below 4.0 x10^-5 M (above this the red compound blocked luminescence)
  inhibitory effect on kinase activity of TbERK8: no detectible (n/d) inhibitory effect
